In the supplement of paper PMC11061612:

Experiments:
Experiment in all cases: combination Emax (second highest fraction inhibited in the dose matrix, 72 h); higher = more inhibition; extreme values may be limits of the assay
[1] = test system: BICR78 (Oral Cavity Carcinoma)
In short: (§1)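 Bliss excess equals the observed combination effect minus the expected value EA + EB − EA·EB, where EA and EB are the effects of each agent alone. Combination Emax is the second-highest inhibition within the matrix. Inhibition was scaled from CellTiter-Glo 2.0 luminescence, with 0 set by vehicle wells and 1 by blank wells, after 72 hours of two-drug dosing of cells plated in 1536-well plates.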

[2] = test system: H4 (Low Grade Glioma)
In short: as §1

[3] = test system: SLVL (B-Cell Non-Hodgkin's Lymphoma)
In short: as §1

[4] = test system: SK-MEL-1 (Melanoma)
In short: as §1

[5] = test system: EKVX (Non-Small Cell Lung Carcinoma)
In short: as §1

[6] = test system: GDM-1 (Acute Myeloid Leukemia)
In short: as §1

[7] = test system: D-283MED (Other Solid Carcinomas)
In short: as §1

[8] = test system: NCI-H1688 (Small Cell Lung Carcinoma)
In short: as §1

[9] = test system: A172 (Glioblastoma)
In short: as §1

[10] = test system: TYK-nu (Ovarian Carcinoma)
In short: as §1

[11] = test system: SNU-61 (Colorectal Carcinoma)
In short: as §1

[12] = test system: HLE (Hepatocellular Carcinoma)
In short: as §1

[13] = test system: MSTO-211H (Mesothelioma)
In short: as §1

[14] = test system: KG-1 (Acute Myeloid Leukemia)
In short: as §1

[15] = test system: CAL-39 (Other Solid Carcinomas)
In short: as §1

[16] = test system: U-118-MG (Low Grade Glioma)
In short: as §1

[17] = test system: MCF7 (Breast Carcinoma)
In short: as §1

[18] = test system: YT (Other Blood Carcinomas)
In short: as §1

[19] = test system: HuO9 (Osteosarcoma)
In short: as §1

[20] = test system: ETK-1 (Biliary Tract Carcinoma)
In short: as §1

Row | Compound | combination Emax [1] | combination Emax [2] | combination Emax [3] | combination Emax [4] | combination Emax [5] | combination Emax [6] | combination Emax [7] | combination Emax [8] | combination Emax [9] | combination Emax [10] | combination Emax [11] | combination Emax [12] | combination Emax [13] | combination Emax [14] | combination Emax [15] | combination Emax [16] | combination Emax [17] | combination Emax [18] | combination Emax [19] | combination Emax [20]
1 | Cc1c2c(nn1C)CSCc1cc(n(C)n1)CSc1cc(c3ccccc3c1)OCCCc1c(C(=O)O)n(C)c3c-2c(Cl)ccc13 [AZD5991] + C=CCn1c(=O)c2cnc(Nc3ccc(N4CCN(C)CC4)cc3)nc2n1-c1cccc(C(C)(C)O)n1 [AZD1775] (first compound max 1 µM, partner max 1 µM) | 0.381 | 0.9 | 0.937 | 0.402 | 0.316 | 0.961 | 0.971 | 0.601 | 0.609 | 0.761 | 0.49 | 0.849 | 0.596 | 1 | 0.677 | 0.339 | 0.652 | 0.998 | 1 | 0.59
2 | CN(C)CCCOc1ccc(-c2ccc3ncc4c(c3c2)n(C2CCOCC2)c(=O)n4C)cn1 [AZD0156] + C[C@@H]1COCCN1C2=NC(=NC(=C2)C3(CC3)[S@](=N)(=O)C)C4=C5C=CNC5=NC=C4 [AZD6738] (first compound max 1 µM, 7x7, partner max 10 µM) | 0.696 | 0.826 | 0.84 | 0.442 | 0.234 | 0.52 | 1 | 0.382 | 0.717 | 0.713 | 0.299 | 0.778 | 0.856 | 0.711 | 0.5 | 0.528 | 0.837 | 0.727 | 0.838 | 0.632
3 | CC1(C)CCC(CN2CCN(c3ccc(C(=O)NS(=O)(=O)c4ccc(NCC5CCOCC5)c([N+](=O)[O-])c4)c(Oc4cnc5[nH]ccc5c4)c3)CC2)=C(c2ccc(Cl)cc2)C1 [Venetoclax] + Cc1cc2ncnn2cc1Nc1ncc2c(n1)n(C1CCOCC1)c(=O)n2C [AZD7648] (first compound max 1 µM, 7x7, partner max 10 µM) | 0.265 | 0.322 | 0.709 | 0.308 | 0.161 | 0.842 | 0.673 | 0.245 | 0.334 | 0.36 | 0.154 | 0.215 | 0.22 | 0.651 | 0.247 | 0.412 | 0.31 | 0.732 | 0.426 | 0.253
4 | COc1cccc(OCCCN)c1-c1cc(Nc2cnc(C#N)cn2)n[nH]1 [Prexasertib] + C=CCn1c(=O)c2cnc(Nc3ccc(N4CCN(C)CC4)cc3)nc2n1-c1cccc(C(C)(C)O)n1 [AZD1775] (first compound max 1 µM, partner max 1 µM) | 0.713 | 0.979 | 0.951 | 0.605 | 0.287 | 0.945 | 1 | 0.838 | 0.832 | 0.748 | 0.515 | 0.881 | 0.875 | 0.916 | 0.694 | 0.743 | 0.658 | 0.971 | 0.954 | 0.666
5 | COc1cccc(OCCCN)c1-c1cc(Nc2cnc(C#N)cn2)n[nH]1 [Prexasertib] + Cc1cc2ncnn2cc1Nc1ncc2c(n1)n(C1CCOCC1)c(=O)n2C [AZD7648] (first compound max 1 µM, 7x7, partner max 10 µM) | 0.572 | 0.874 | 0.962 | 0.653 | 0.276 | 0.924 | 0.995 | 0.557 | 0.728 | 0.739 | 0.466 | 0.842 | 0.894 | 0.912 | 0.328 | 0.686 | 0.682 | 0.928 | 0.778 | 0.595
6 | Cc1c2c(nn1C)CSCc1cc(n(C)n1)CSc1cc(c3ccccc3c1)OCCCc1c(C(=O)O)n(C)c3c-2c(Cl)ccc13 [AZD5991] + CC1(C)CCC(CN2CCN(c3ccc(C(=O)NS(=O)(=O)c4ccc(NCC5CCOCC5)c([N+](=O)[O-])c4)c(Oc4cnc5[nH]ccc5c4)c3)CC2)=C(c2ccc(Cl)cc2)C1 [Venetoclax] (first compound max 1 µM, 7x7, partner max 1 µM) | 0.18 | 0.726 | 0.777 | 0.22 | 0.138 | 0.999 | 0.639 | 0.702 | 0.268 | 0.233 | 0.155 | 0.287 | 0.137 | 1 | 0.292 | 0.196 | 0.745 | 1 | 1 | 0.152
7 | COc1cccc(OCCCN)c1-c1cc(Nc2cnc(C#N)cn2)n[nH]1 [Prexasertib] + C[C@@H]1COCCN1C2=NC(=NC(=C2)C3(CC3)[S@](=N)(=O)C)C4=C5C=CNC5=NC=C4 [AZD6738] (first compound max 1 µM, 7x7, partner max 10 µM) | 0.645 | 0.91 | 0.952 | 0.624 | 0.24 | 0.94 | 0.988 | 0.535 | 0.775 | 0.766 | 0.422 | 0.867 | 0.852 | 0.931 | 0.524 | 0.772 | 0.703 | 0.918 | 0.855 | 0.588
8 | COc1cccc(OCCCN)c1-c1cc(Nc2cnc(C#N)cn2)n[nH]1 [Prexasertib] + CN(C)CCCOc1ccc(-c2ccc3ncc4c(c3c2)n(C2CCOCC2)c(=O)n4C)cn1 [AZD0156] (first compound max 1 µM, 7x7, partner max 1 µM) | 0.593 | 0.917 | 0.951 | 0.605 | 0.265 | 0.913 | 0.99 | 0.568 | 0.699 | 0.73 | 0.422 | 0.803 | 0.888 | 0.903 | 0.258 | 0.723 | 0.741 | 0.964 | 0.785 | 0.598
9 | CCN(CCO)CCCOc1ccc2c(Nc3cc(CC(=O)Nc4cccc(F)c4)[nH]n3)ncnc2c1 [AZD2811] + C[C@@H]1COCCN1C2=NC(=NC(=C2)C3(CC3)[S@](=N)(=O)C)C4=C5C=CNC5=NC=C4 [AZD6738] (first compound max 1 µM, 7x7, partner max 10 µM) | 0.637 | 0.808 | 0.784 | 0.331 | 0.261 | 0.823 | 1 | 0.271 | 0.655 | 0.717 | 0.297 | 0.76 | 0.727 | 0.699 | 0.467 | 0.52 | 0.58 | 0.76 | 0.815 | 0.562
10 | CN(CCO)CC[C@H](CSc1ccccc1)Nc1ccc(S(=O)(=O)NC(=O)c2ccc(N3CCC([C@@H](O)c4ccccc4-c4ccc(Cl)cc4)CC3)cc2)cc1S(=O)(=O)C(F)(F)F [AZD4320] + C[C@@H](Nc1cc(F)cc(F)c1)c1cc(C(=O)N(C)C)cc2c(=O)cc(N3CCOCC3)oc12 [AZD8186] (first compound max 1 µM, 7x7, partner max 3 µM) | 0.446 | 0.583 | 0.955 | 0.722 | 0.308 | 1 | 0.928 | 0.484 | 0.327 | 0.645 | 0.162 | 0.48 | 0.751 | 0.953 | 0.41 | 0.812 | 0.544 | 0.676 | 0.953 | 0.324
11 | CC1(C)CCC(CN2CCN(c3ccc(C(=O)NS(=O)(=O)c4ccc(NCC5CCOCC5)c([N+](=O)[O-])c4)c(Oc4cnc5[nH]ccc5c4)c3)CC2)=C(c2ccc(Cl)cc2)C1 [Venetoclax] + CCN(CCO)CCCOc1ccc2c(Nc3cc(CC(=O)Nc4cccc(F)c4)[nH]n3)ncnc2c1 [AZD2811] (first compound max 1 µM, 7x7, partner max 1 µM) | 0.245 | 0.583 | 0.901 | 0.292 | 0.178 | 0.996 | 0.778 | 0.242 | 0.423 | 0.247 | 0.168 | 0.416 | 0.394 | 0.84 | 0.285 | 0.357 | 0.31 | 0.344 | 0.336 | 0.259
12 | CCc1c2c(nc3ccc(O)cc13)-c1cc3c(c(=O)n1C2)COC(=O)[C@]3(O)CC [SN-38] + CN(C)CCCOc1ccc(-c2ccc3ncc4c(c3c2)n(C2CCOCC2)c(=O)n4C)cn1 [AZD0156] (first compound max 0.3 µM, 7x7, partner max 1 µM) | 0.786 | 0.931 | 0.972 | 0.538 | 0.188 | 0.937 | 0.954 | 0.322 | 0.81 | 0.847 | 0.152 | 0.916 | 0.804 | 0.886 | 0.896 | 0.893 | 0.686 | 0.914 | 0.989 | 0.572
13 | C=CCn1c(=O)c2cnc(Nc3ccc(N4CCN(C)CC4)cc3)nc2n1-c1cccc(C(C)(C)O)n1 [AZD1775] + C[C@@H]1COCCN1C2=NC(=NC(=C2)C3(CC3)[S@](=N)(=O)C)C4=C5C=CNC5=NC=C4 [AZD6738] (first compound max 1 µM, partner max 10 µM) | 0.667 | 0.994 | 0.917 | 0.55 | 0.327 | 0.861 | 1 | 0.789 | 0.81 | 0.732 | 0.404 | 0.886 | 0.85 | 0.83 | 0.598 | 0.662 | 0.73 | 0.897 | 0.94 | 0.665
